In patent US9491944B2, “Pesticidal compositions and related methods” (DOW AGROSCIENCES LLC, priority 2013, dated 2016):

What was measured:
[1] = test system: Sweetpotato Whitefly-Crawler (WF) (Bemisia tabaci) (BEMITA); experiment: Insecticidal test for Sweetpotato Whitefly-crawler (WF) in foliar spray assay on cotton plants; format: in vivo; settings: 216 h, 200 ppm foliar spray on cotton plants, graded after 9 days, Abbott corrected % control, read-out: WF % Control (or Mortality) rating
Description: Insecticidal Test for Sweetpotato Whitefly-Crawler (WF) (Bemisia tabaci) (BEMITA) in Foliar Spray Assay
Cotton plants (Gossypium hirsutum) grown in 3-inch pots, with 1 small (4-5 cm) true leaves, were used as test substrate. The plants were infested with 200-400 whitefly eggs 4-5 days prior to chemical application. Four pots with individual plants were used for each treatment. Test compounds (2 mg) were dissolved in 1 mL of acetone solvent, forming stock solutions of 2000 ppm test compound. The stock solutions were diluted 10× with 0.025% Tween 20 in H2O (diluents) to obtain the solution at 200 ppm test compound. A hand-held aspirator-type sprayer was used for spraying a solution to both sides of cotton leaves until runoff. Reference plants (solvent check) were sprayed with the diluent only containing 10% by volume of acetone solvent. Treated plants were held in a holding room for 9 days at approximately 25° C. and ambient relative humidity (RH) prior to grading. Evaluation was conducted by counting the number of live 3-4 nymph stage per plant under a microscope. Percent control was measured by using Abbott's correction formula (W. S. Abbott, “A Method of Computing the Effectiveness of an Insecticide,” J. Econ. Entomol. 18 (1925), pp. 265-267) as follows. Corrected % Control=100*(X−Y)/X
X=No. of live nymphs on solvent check plants and
Y=No. of live nymphs on treated plants.
Biological Data for Green Peach Aphid (MYZUPE) and Sweetpotato Whitefly-crawler (WF) (BEMITA)” (see Table section).
(§1) The mortality efficiency of the pesticidal compounds against GPA and WF insects was determined after treatment.

[2] = test system: Green Peach Aphid (Myzus persicae) (GPA) (MYZUPE); experiment: Bioassay for Green Peach Aphid (GPA) foliar spray on cabbage seedlings; format: in vivo; settings: 72 h, 200 ppm foliar spray on cabbage seedlings, graded after three days, Abbott corrected % control, read-out: GPA % Control (or Mortality) rating
Description: Bioassay for Green Peach Aphid (Myzus persicae) (GPA) (MYZUPE)
Cabbage seedlings grown in 3-inch pots, with 2-3 small (3-5 cm) true leaves, were used as test substrate. The seedlings were infested with 20-50 GPA (wingless adult and nymph stages) one day prior to chemical application. Four pots with individual seedlings were used for each treatment. Test compounds (2 mg) were dissolved in 2 mL of acetone/methanol (1:1) solvent, forming stock solutions of 1000 ppm test compound. The stock solutions were diluted 5× with 0.025% Tween 20 in H2O to obtain the solution at 200 ppm test compound. A hand-held aspirator-type sprayer was used for spraying a solution to both sides of cabbage leaves until runoff Reference plants (solvent check) were sprayed with the diluent only containing 20% by volume of acetone/methanol (1:1) solvent. Treated plants were held in a holding room for three days at approximately 25° C. and ambient relative humidity (RH) prior to grading. Evaluation was conducted by counting the number of live aphids per plant under a microscope. Percent control was measured by using Abbott's correction formula (W. S. Abbott, “A Method of Computing the Effectiveness of an Insecticide,” J. Econ. Entomol. 18 (1925), pp. 265-267) as follows Corrected % Control=100*(X−Y)/X
X=No. of live aphids on solvent check plants and
Y=No. of live aphids on treated plants.
Biological Data for Green Peach Aphid (GPA) (MYZUPE) and Sweetpotato Whitefly-crawler (WF) (BEMITA)” (see Table section).
as §1

`Clc1cccc(-c2cn(-c3cccnc3)nn2)n1` [Compound F10, 2-Chloro-6-[1-(pyridin-3-yl)-1H-1,2,3-triazol-4-yl]pyridine] showed a mortality at 200 ppm [1] of 0 to 80% and a mortality at 200 ppm [2] of 80 to 100%.

`FC(F)(F)c1ccc(-c2cn(-c3cccnc3)nn2)nc1` [Compound F8, 2-[1-(Pyridin-3-yl)-1H-1,2,3-triazol-4-yl]-5-(trifluoromethyl)pyridine] was tested, and the mortality at 200 ppm [1] was 80 to 100% and the mortality at 200 ppm [2] was 80 to 100%.

In the case of `CSc1cccc(-c2cn(-c3cccnc3)nn2)c1` [Compound F3], the mortality at 200 ppm [1] is reported as under 0% and the mortality at 200 ppm [2] is reported as 80 to 100%.

With `Clc1cccc(-c2cn(-c3cccnc3)nn2)c1` [Compound F11] the mortality at 200 ppm [1] was under 0% and the mortality at 200 ppm [2] was 0 to 80%.

With `FC(F)(F)c1ccc(-c2cn(-c3cccnc3)nn2)cn1` [Compound F2, 5-[1-(Pyridin-3-yl)-1H-1,2,3-triazol-4-yl]-2-(trifluoromethyl)pyridine] the mortality at 200 ppm [1] was 0 to 80% and the mortality at 200 ppm [2] was 80 to 100%.

`Clc1ccccc1-c1cn(-c2cccnc2)nn1` [Compound F1] showed a mortality at 200 ppm [1] of 0 to 80% and a mortality at 200 ppm [2] of 0 to 80%.

`COc1cccc(-c2cn(-c3cccnc3)nn2)n1` [Compound F5, 2-Methoxy-6-[1-(pyridin-3-yl)-1H-1,2,3-triazol-4-yl]pyridine] was tested, and the mortality at 200 ppm [1] was 0 to 80% and the mortality at 200 ppm [2] was 80 to 100%.

Work on `Brc1cccc(-c2cn(-c3cccnc3)nn2)n1` [Compound F9, 2-Bromo-6-[1-(pyridin-3-yl)-1H-1,2,3-triazol-4-yl]pyridine] yielded a mortality at 200 ppm [1] of 0 to 80% and a mortality at 200 ppm [2] of 80 to 100%.

`Cc1cccc(-c2cn(-c3cccnc3)nn2)n1` [Compound F12, 2-methyl-6-(1-(pyridin-3-yl)-1H-1,2,3-triazol-4-yl)pyridine] was tested, and the mortality at 200 ppm [1] was 80 to 100% and the mortality at 200 ppm [2] was 80 to 100%.

`Cc1ccc(-c2cn(-c3cccnc3)nn2)nc1` [Compound F4, 5-Methyl-2-[1-(pyridin-3-yl)-1H-1,2,3-triazol-4-yl]pyridine] gave a mortality at 200 ppm [1] of 80 to 100% and a mortality at 200 ppm [2] of 80 to 100%.

For `FC(F)(F)Oc1cccc(-c2cn(-c3cccnc3)nn2)c1` [Compound F6, 3-(4-(3-(trifluoromethoxy)phenyl)-1H-1,2,3-triazol-1-yl)pyridine], the mortality at 200 ppm [1] was 0 to 80% and the mortality at 200 ppm [2] was 80 to 100%.

For `FC(F)(F)c1cccc(-c2cn(-c3cccnc3)nn2)c1` [Compound F13], the mortality at 200 ppm [1] was under 0% and the mortality at 200 ppm [2] was 80 to 100%.

Molecule `FC(F)(F)c1cccc(-c2cn(-c3cccnc3)nn2)n1` [Compound F7, 2-[1-(pyridin-3-yl)-1H-1,2,3-triazol-4-yl]-6-(trifluoromethyl) pyridine] has a mortality at 200 ppm [1] of 80 to 100% and a mortality at 200 ppm [2] of 80 to 100%.
